From PubChem BioAssay (NCI)
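A five-concentration, 48-hour dose response in 96-well plates underlies each endpoint, interpolated linearly between surrounding concentrations. Definition used: TGI = concentration required for complete inhibition of growth.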

What was measured:
Test in all cases: growth of human tumour cells (NCI), 48 h
SR leukemia = test system: SR leukemia
MALME-3M melanoma = test system: MALME-3M melanoma
SF-539 CNS = test system: SF-539 CNS
786-0 renal = test system: 786-0 renal
SF-295 CNS = test system: SF-295 CNS
PC-3 prostate = test system: PC-3 prostate
LOX IMVI melanoma = test system: LOX IMVI melanoma
A549 NSCLC = test system: A549 NSCLC
SK-MEL-28 melanoma = test system: SK-MEL-28 melanoma
U251 CNS = test system: U251 CNS
SN12C renal = test system: SN12C renal
OVCAR-5 ovarian = test system: OVCAR-5 ovarian
COLO 205 colon = test system: COLO 205 colon
OVCAR-8 ovarian = test system: OVCAR-8 ovarian
SF-268 CNS = test system: SF-268 CNS
MOLT-4 leukemia = test system: MOLT-4 leukemia
DU-145 prostate = test system: DU-145 prostate
HCT-116 colon = test system: HCT-116 colon
OVCAR-4 ovarian = test system: OVCAR-4 ovarian
T-47D breast = test system: T-47D breast
TK-10 renal = test system: TK-10 renal
OVCAR-3 ovarian = test system: OVCAR-3 ovarian
HL-60(TB) leukemia = test system: HL-60(TB) leukemia
UACC-62 melanoma = test system: UACC-62 melanoma
SK-MEL-5 melanoma = test system: SK-MEL-5 melanoma
SK-OV-3 ovarian = test system: SK-OV-3 ovarian
RXF 393 renal = test system: RXF 393 renal
HOP-62 NSCLC = test system: HOP-62 NSCLC
MDA-N = test system: MDA-N
NCI-H226 lung = test system: NCI-H226 lung
MCF7 breast = test system: MCF7 breast
MDA-MB-231 breast = test system: MDA-MB-231 breast
HT29 colon = test system: HT29 colon
RPMI-8226 leukemia = test system: RPMI-8226 leukemia
K-562 leukemia = test system: K-562 leukemia
NCI-H23 lung = test system: NCI-H23 lung
BT-549 breast = test system: BT-549 breast
CAKI-1 renal = test system: CAKI-1 renal
A498 renal = test system: A498 renal
NCI-H460 lung = test system: NCI-H460 lung
IGROV1 ovarian = test system: IGROV1 ovarian
SW-620 colon = test system: SW-620 colon
EKVX NSCLC = test system: EKVX NSCLC
SNB-75 CNS = test system: SNB-75 CNS
HCT-15 colon = test system: HCT-15 colon
KM12 colon = test system: KM12 colon
M14 melanoma = test system: M14 melanoma
NCI-H522 lung = test system: NCI-H522 lung
NCI/ADR-RES ovarian = test system: NCI/ADR-RES ovarian
MDA-MB-435 = test system: MDA-MB-435
HS 578T breast = test system: HS 578T breast
UO-31 renal = test system: UO-31 renal
SNB-19 CNS = test system: SNB-19 CNS
ACHN renal = test system: ACHN renal
HOP-92 NSCLC = test system: HOP-92 NSCLC

Measured: TGI

CC(C)CC(NC=O)C(=O)NC(Cc1ccccc1)NC(=O)CNC(=O)C(C)NC(=O)OC(C)(C)C (stereo not given)
> 100 µM: all assays above
